Results from US5248807A, “Triterpene derivatives” (Shionogi & Co., Ltd., priority 1991, dated 1993).
pIC50: −log10 of the molar value.

Legend:
[1] = target: T1, endothelin-receptor (membrane fraction of rat aorta) (Rattus norvegicus, UniProt P26684); assay: Inhibitory effect on the binding of 125I-endothelin-1 to the receptor, rat aorta membrane; settings: 25 pM 125I-endothelin-1, 37° C., 1 hour, read-out: IC50 (concentration to inhibit 50% of the specific binding of 125I-endothelin-1)
T1 construct: Membrane fractions were prepared from porcine and rat hearts, rat thoracic aorta, and the media of porcine aorta; from tissue; host or cells: rat thoracic aorta, membrane fraction
T1 sequence (P26684 21-426): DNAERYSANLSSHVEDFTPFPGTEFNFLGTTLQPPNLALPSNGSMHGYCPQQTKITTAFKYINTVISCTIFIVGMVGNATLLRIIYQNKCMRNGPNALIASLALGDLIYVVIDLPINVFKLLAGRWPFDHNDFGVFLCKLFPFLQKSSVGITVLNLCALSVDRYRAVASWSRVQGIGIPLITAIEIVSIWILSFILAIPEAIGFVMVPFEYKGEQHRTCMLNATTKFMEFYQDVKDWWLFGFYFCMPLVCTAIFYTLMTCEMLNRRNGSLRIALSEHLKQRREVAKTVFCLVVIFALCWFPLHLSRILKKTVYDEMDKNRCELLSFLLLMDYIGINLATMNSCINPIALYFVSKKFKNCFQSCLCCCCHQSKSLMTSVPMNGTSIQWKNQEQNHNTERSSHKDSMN
Method: (§1) Inhibitory Effect on the Binding of ^125 I-Endothelin-1 to the Receptor
(§2) Membrane fractions were prepared from porcine and rat hearts, rat thoracic aorta, and the media of porcine aorta. Each membrane fraction was incubated, in the presence or absence of the present compound 1 with 25 pM of ^125 I-endothelin-1 at 37° C. for 1 hour. After the reaction was completed, ^125 I-endothelin-1 bound to each membrane fraction was separated by rapid filtration through glass fiber filters and its radioactivity was determined with a gamma-counter. The specific binding was calculated by subtracting, from the total binding, the non-specific binding which was determined in the presence of 10^-7 M of non-radioactive endothelin-1. The concentration of the present compound 1 to inhibit 50% of the specific binding (i.e., IC50) is shown at Table 1.

[2] = target: T2, endothelin-receptor (membrane fraction of the media from porcine aorta) (Sus scrofa, UniProt Q29010); assay: Inhibitory effect on the binding of 125I-endothelin-1 to the receptor, media of porcine aorta membrane; settings: 25 pM 125I-endothelin-1, 37° C., 1 hour, read-out: IC50 (concentration to inhibit 50% of the specific binding of 125I-endothelin-1)
T2 construct: Membrane fractions were prepared from porcine and rat hearts, rat thoracic aorta, and the media of porcine aorta; from tissue; host or cells: media of porcine aorta, membrane fraction
T2 sequence (Q29010 21-427): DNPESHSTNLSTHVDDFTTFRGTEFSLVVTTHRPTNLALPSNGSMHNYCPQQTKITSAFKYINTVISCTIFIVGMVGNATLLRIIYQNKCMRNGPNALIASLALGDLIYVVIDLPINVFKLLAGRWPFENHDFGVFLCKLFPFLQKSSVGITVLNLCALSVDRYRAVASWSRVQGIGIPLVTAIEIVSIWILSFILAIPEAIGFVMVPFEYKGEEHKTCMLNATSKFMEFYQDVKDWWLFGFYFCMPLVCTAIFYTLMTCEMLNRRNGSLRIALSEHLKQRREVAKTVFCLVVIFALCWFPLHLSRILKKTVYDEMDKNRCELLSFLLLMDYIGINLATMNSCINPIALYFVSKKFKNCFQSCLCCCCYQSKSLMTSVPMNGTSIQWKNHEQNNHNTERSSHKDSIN
Method: as §1, §2

[3] = tested on: endothelin-1-induced increase in cytosolic calcium ion concentration (rat aortic smooth muscle A7r5 cells); assay: Inhibition of the endothelin-1-induced increase in cytosolic calcium ion concentration in A7r5 cells; type: cell-based; settings: fura-2, 1 min pre-incubation, 10^-8 M endothelin-1, read-out: IC50 (concentration to inhibit the endothelin-1-induced increase in cytosolic calcium ion by 50%)
Method: Inhibition of the endothelin-1-induced increase in cytosolic calcium ion concentration
To a cuvette was put the suspension of rat aortic smooth muscle A7r5 cells, obtained from Dainippon Pharmaceutical Co., Ltd., loaded with 2 μM of fura-2 (Dojindo), then the change in fluorescence intensity was determined with a calcium analizer (CAF100, Nippon Bunkou Co.). In the determination,the exciting was performed at 340 nm and 380 nm and the recording at 510 nm. Calculation for the concentration of cytosolic calcium ion was performed according to the method of Grynkiewicz et al. (J.Biol.Chem., 260, P. 3440-3450, 1985). The experiment was performed as follows: at first, the present compounds were added to the cell suspension in the cuvette and the mixture was incubated for 1 min. Then, 10^-8 M of endothelin-1 was added thereto and the change in fluorescence intensity was determined. The concentration of the present compounds to inhibit the endothelin-1-induced increase in cytosolic calcium ion by 50%, (i.e., IC50) is shown at Table 2.

[4] = target: T3, endothelin-receptor (membrane fraction of porcine heart) (Sus scrofa, UniProt Q29010); assay: Inhibitory effect on the binding of 125I-endothelin-1 to the receptor, porcine heart membrane; settings: 25 pM 125I-endothelin-1, 37° C., 1 hour, read-out: IC50 (concentration to inhibit 50% of the specific binding of 125I-endothelin-1)
T3 construct: Membrane fractions were prepared from porcine and rat hearts; from tissue; host or cells: porcine heart, membrane fraction
T3 sequence (Q29010 21-427): T2 sequence (Q29010 21-427)
Method: as §1, §2

pIC50 [3]	Structure (SMILES)	other results
7.96	CC1(C)CCC2(C(=O)O)CCC3(COC(=O)C=Cc4ccc(O)c(O)c4)C(=CCC4C5(C)CCC(=O)C(C)(C)C5CCC43C)C2C1 (stereo not drawn) [Compound 1]	pIC50 [1]: 7.25; pIC50 [2]: 7.49; pIC50 [4]: 7.08
7.74	CC1(C)CCC2(C(=O)O)CCC3(COC(=O)C=Cc4ccccc4)C(=CCC4C5(C)CCC(=O)C(C)(C)C5CCC43C)C2C1 (stereo not drawn) [Compound 3]	–
7.47	CC(=O)Oc1cccc(C=CC(=O)OCC23CCC4(C(=O)O)CCC(C)(C)CC4C2=CCC2C4(C)CCC(=O)C(C)(C)C4CCC23C)c1 (stereo not drawn) [Compound 4]	–
7.96	CC1(C)CCC2(C(=O)O)CCC3(COC(=O)C=Cc4cccc(O)c4)C(=CCC4C5(C)CCC(=O)C(C)(C)C5CCC43C)C2C1 (stereo not drawn) [Compound 5]	–
7.85	CC1(C)CCC2(C(=O)O)CCC3(COC(=O)C=Cc4cccc(OS(=O)(=O)O)c4)C(=CCC4C5(C)CCC(=O)C(C)(C)C5CCC43C)C2C1 (stereo not drawn) [Compound 6]	–
8.05	CC1(C)CCC2(C(=O)O)CCC3(COC(=O)C=Cc4cccc(OC(=O)CCC(=O)O)c4)C(=CCC4C5(C)CCC(=O)C(C)(C)C5CCC43C)C2C1 (stereo not drawn) [Compound 7]	–
6.59	CC(=O)Oc1cc(C=CC(=O)OCC23CCC4(C(=O)O)CCC(C)(C)CC4C2=CCC2C4(C)CCC(=O)C(C)(C)C4CCC23C)cc(OC(C)=O)c1 (stereo not drawn) [Compound 8]	–
8.35	CC1(C)CCC2(C(=O)O)CCC3(COC(=O)C=Cc4cc(O)cc(O)c4)C(=CCC4C5(C)CCC(=O)C(C)(C)C5CCC43C)C2C1 (stereo not drawn) [Compound 9]	–
6.74	CC(=O)Oc1ccc(C=CC(=O)OCC23CCC4(C(=O)O)CCC(C)(C)CC4C2=CCC2C4(C)CCC(=O)C(C)(C)C4CCC23C)cc1 (stereo not drawn) [Compound 10]	–
7.57	CC1(C)CCC2(C(=O)O)CCC3(COC(=O)C=Cc4ccc(O)cc4)C(=CCC4C5(C)CCC(=O)C(C)(C)C5CCC43C)C2C1 (stereo not drawn) [Compound 11]	–
7.57	CC1(C)CCC2(C(=O)O)CCC3(COC(=O)C=Cc4ccccc4O)C(=CCC4C5(C)CCC(=O)C(C)(C)C5CCC43C)C2C1 (stereo not drawn) [Compound 12]	–
7.60	CC1(C)CCC2(C(=O)O)CCC3(COC(=O)C=Cc4ccccn4)C(=CCC4C5(C)CCC(=O)C(C)(C)C5CCC43C)C2C1 (stereo not drawn) [Compound 13]	–
